EC50, IC50 and inhibition data for 20 compounds are collected here from patent publication US12441704B2, “Compounds active towards nuclear receptors” (NUEVOLUTION A/S, priority 2019, dated 2025).

The target in assay [1] is T1, RORγ ligand-binding domain fused to Gal4 (Homo sapiens, UniProt P51449).
T1 construct: Gal4 (galactose-responsive transcription factor); expressed in transfected cells; host or cells: HEK293
T1 sequence (P51449 269-508 limits assumed): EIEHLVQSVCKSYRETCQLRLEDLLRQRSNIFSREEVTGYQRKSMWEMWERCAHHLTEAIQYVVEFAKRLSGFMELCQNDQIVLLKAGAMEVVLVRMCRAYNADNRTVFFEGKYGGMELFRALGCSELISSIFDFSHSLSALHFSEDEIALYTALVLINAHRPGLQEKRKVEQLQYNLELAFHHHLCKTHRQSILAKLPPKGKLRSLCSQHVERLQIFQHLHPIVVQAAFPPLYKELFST
Nature of the assay: RORγ Reporter Assay (Gal4). Type of assay: cell-based. The gist of the method:
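HEK293 cells transiently co-transfected with the Gal4-fused RORγ LBD and a UAS-luciferase reporter were exposed to compounds for 24 h at 37 °C (0.1% DMSO final). Luminescence was read, and percent reduction of RORγ activity was calculated relative to vehicle-average RLU.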
(Reporter assays use an easily measured gene product as a stand-in for the process of interest.)

The subject of assay [2] is IL-17A secretion in activated PBMCs. Description: IL-17A secretion in activated PBMCs. Particulars: for IC50: human PBMCs stimulated with CD3/CD28 Dynabeads for 48 h, absolute IC50. The format is cell-based, human. How it is done: Heparin-treated whole blood from healthy human volunteers was supplied from Hospital de Sant Pau (Barcelona) under the approval of the local ethical review board for human studies (Hospital de Sant Pau, Barcelona, Spain). Human peripheral blood mononuclear cells (PBMCs) were isolated from healthy human volunteers by density gradient centrifugation using the Ficoll-Paque (GE Healthcare). […] Cells were seeded in 384-well plate (DiscoverX), at 40,000 cells per well and cultured 2 h at 37° C. and 5% CO2.
Dose-response curves with compounds were prepared using a 5-fold serial dilution (10 concentrations) in 100% DMSO and further diluted 100-fold in culture medium. Compound solutions (5 μL) were added to the plate containing cells (final DMSO concentration of 0.1%) and incubated for 30 min. Then, cells were stimulated with CD3/CD28 Dynabeads (ThermoFisher, at a bead-to-cell ratio of 1:1) for 48 h at 37° C. and 5% CO2.
IL-17A levels in supernatant were determined by immunoassay using hIL17A QBeads (Intellicyt) and by fluorescence analysis in iQue flow cytometer following the manufacturer's instructions. Inhibition of IL-17A secretion was calculated using the following formula: inhibition=100*[1−[(x−mean basal condition)/(mean top condition−mean basal condition)]]. Activated DMSO-treated cells were used as top condition and activated GNE09461 (10 μM)-treated cells as basal condition.

[3] abbreviates: HEK293 cells co-transfected with RORγ LBD-Gal4 and luciferase reporter, 24 h incubation, absolute EC50, read-out: EC50.

Where two headings read alike, the source gives them in different places.

By EC50 is commonly meant the concentration giving half of the maximal effect. A word on the IC50: it is the concentration that inhibits the measured activity by half. Higher therefore signals a need for much substance. For the compound `NC(=O)CN1CC[C@@H](CNc2ncnc(N(Cc3ccc(C(F)(F)F)cn3)C3CC3)c2F)[C@H](O)C1` (racemic) [Example A7-14, rac-2-((3R,4R)-4-(((6-(cyclopropyl((5-(trifluoromethyl)pyridin-2-yl)methyl)amino)-5-fluoropyrimidin-4-yl)amino)methyl)-3-hydroxypiperidin-1-yl)acetamide], in assay [1] (setting [3]), the EC50 amounted to 15 nM. Further, the IC50 in assay [2] (Homo sapiens, PBMC, 48 h) turned out to be 28 nM.
On the same counts, the results for `CCN(Cc1ccc(C(F)(F)F)cc1)c1ncnc(NC[C@H]2CCN(CC(N)=O)C[C@@H]2O)c1F` (racemic) [Example A7-21, rac-2-((3R,4R)-4-(((6-(ethyl(4-(trifluoromethyl)benzyl)amino)-5-fluoropyrimidin-4-yl)amino)methyl)-3-hydroxypiperidin-1-yl)acetamide] are 12 nM and 80 nM.
On the same counts, the results for `NC(=O)CN1CC[C@@H](CNc2ncnc(N(Cc3ccc(C(F)(F)F)nc3)C3CC3)c2F)[C@H](O)C1` (racemic) [Example A7-28, rac-2-((3R,4R)-4-(((6-(cyclopropyl((6-(trifluoromethyl)pyridin-3-yl)methyl)amino)-5-fluoropyrimidin-4-yl)amino)methyl)-3-hydroxypiperidin-1-yl)acetamide] are 20.5 nM and 120 nM.
The corresponding values for `NC(=O)CN1CC[C@@H](CNc2ncnc(N(Cc3ccc(C(F)(F)F)cc3)[C@H]3C[C@H](F)C3)c2F)[C@H](O)C1` (racemic) [Example A7-31, rac-2-((3R,4R)-4-(((5-fluoro-6-(((1r,3S)-3-fluorocyclobutyl)(4-(trifluoromethyl)benzyl)amino)pyrimidin-4-yl)amino)methyl)-3-hydroxypiperidin-1-yl)acetamide] are 29 nM and 180 nM.
As to `NC(=O)CN1CC[C@@H](CNc2ncnc(N(Cc3ccc(C(F)(F)F)cc3)[C@H]3C[C@@H](F)C3)c2F)[C@H](O)C1` (racemic) [Example A7-32, rac-2-((3R,4R)-4-(((5-fluoro-6-(((1s,3R)-3-fluorocyclobutyl)(4-(trifluoromethyl)benzyl)amino)pyrimidin-4-yl)amino)methyl)-3-hydroxypiperidin-1-yl)acetamide], the EC50 in assay [1] (setting [3]) stood at 34 nM. The IC50 in assay [2] (Homo sapiens, PBMC, 48 h) is 220 nM.
The corresponding values for `CC(F)(F)c1ccc(CN(c2ncnc(NC[C@@H]3CCN(CC(N)=O)C[C@H]3O)c2F)C2CC2)cc1` (racemic) [Example A7-40, rac-2-((3R,4R)-4-(((6-(cyclopropyl(4-(1,1-difluoroethyl)benzyl)amino)-5-fluoropyrimidin-4-yl)amino)methyl)-3-hydroxypiperidin-1-yl)acetamide] are 5.5 nM and 7.7 nM.
The corresponding values for `NC(=O)CN1CC[C@@H](CNc2ncnc(N(Cc3ccc(OC(F)F)cc3F)C3CC3)c2F)[C@H](O)C1` (racemic) [Example A7-42, rac-2-((3R,4R)-4-(((6-(cyclopropyl(4-(difluoromethoxy)-2-fluorobenzyl)amino)-5-fluoropyrimidin-4-yl)amino)methyl)-3-hydroxypiperidin-1-yl)acetamide] are 18 nM and 200 nM.
`NC(=O)CN1CC[C@@H](CNc2ncnc(N(Cc3ccc(OC(F)F)cc3)C3CC3)c2F)[C@H](O)C1` (racemic) [Example A7-43, rac-2-((3R,4R)-4-(((6-(cyclopropyl(4-(difluoromethoxy)benzyl)amino)-5-fluoropyrimidin-4-yl)amino)methyl)-3-hydroxypiperidin-1-yl)acetamide]: in assay [1] (setting [3]), the concentration for a half-maximal effect (EC50) is 11 nM. The same compound showed a concentration for half-maximal inhibition (IC50) in assay [2] (Homo sapiens, PBMC, 48 h) of 35 nM.
In general, inhibition refers to the change of the read-out against control, counted positive when it falls. On to `NC(=O)CN1CC[C@@H](CNc2ncnc(N(Cc3cccc(OC(F)(F)F)c3)C3CC3)c2F)[C@H](O)C1` (racemic) [Example A7-56, rac-2-((3R,4R)-4-(((6-(cyclopropyl(3-(trifluoromethoxy)benzyl)amino)-5-fluoropyrimidin-4-yl)amino)methyl)-3-hydroxypiperidin-1-yl)acetamide], for which the EC50 in assay [1] (setting [3]) was 5.3 nM; in assay [1] (compounds of the present disclosure, value from Table 2 herein, read-out: Gal4 assay EC50) it was below 100 nM. In assay [2] (PBMC, @10 uM, human PBMCs stimulated with CD3/CD28 Dynabeads), testing at 10 µM gave an inhibition of 66%.
Compound `[2H]C([2H])([2H])N(Cc1ccc(C(F)(F)F)cc1)c1ncnc(NC[C@@H]2CCN(CC(N)=O)C[C@H]2O)c1F` (racemic) [Example A7-60, rac-2-((3R,4R)-4-(((5-fluoro-6-((methyl-d3)(4-(trifluoromethyl)benzyl)amino)pyrimidin-4-yl)amino)methyl)-3-hydroxypiperidin-1-yl)acetamide] registered a concentration for half-maximal inhibition (IC50) in assay [2] (Homo sapiens, PBMC, 48 h) of 87 nM.
Turning to `CCN(Cc1ccc(C(F)(F)F)cc1)c1ncnc(NC[C@@H]2CCN(C(C(N)=O)c3ccncc3)C[C@H]2O)c1F` (mixture of isomers) [Example A7-62, rac-2-((3R,4R)-4-(((6-(Ethyl(4-(trifluoromethyl)benzyl)amino)-5-fluoropyrimidin-4-yl)amino)methyl)-3-hydroxypiperidin-1-yl)-2-(pyridin-4-yl)acetamide], the EC50 in assay [1] (setting [3]) came out at 1.8 nM. In addition, the IC50 in assay [2] (Homo sapiens, PBMC, 48 h) turned out to be 7.2 nM.
On the same counts, the results for `NC(=O)C(c1ccncc1)N1CC[C@@H](CNc2ncnc(N(Cc3ccc(C(F)(F)F)cc3)C3CC3)c2F)[C@H](O)C1` (mixture of isomers) [Example A7-63, rac-2-((3R,4R)-4-(((6-(cyclopropyl(4-(trifluoromethyl)benzyl)amino)-5-fluoropyrimidin-4-yl)amino)methyl)-3-hydroxypiperidin-1-yl)-2-(pyridin-4-yl)acetamide] are 3.4 nM and 2.3 nM.
On the same counts, the results for `NC(=O)C(CO)N1CC[C@@H](CNc2ncnc(N(Cc3ccc(C(F)(F)F)cc3)C3CC3)c2F)[C@H](O)C1` (mixture of isomers) [Example A7-65, rac-2-((3R,4R)-4-(((6-(cyclopropyl(4-(trifluoromethyl)benzyl)amino)-5-fluoropyrimidin-4-yl)amino)methyl)-3-hydroxypiperidin-1-yl)-3-hydroxypropanamide] are 5.8 nM and 12 nM.
With `NC(=O)CN1CC[C@@H](CNc2ncnc(N(Cc3ccc(-n4cccn4)cc3)C3CC3)c2F)[C@H](O)C1` (racemic) [Example A7-86, rac-2-((3R,4R)-4-(((6-((4-(1H-pyrazol-1-yl)benzyl)(cyclopropyl)amino)-5-fluoropyrimidin-4-yl)amino)methyl)-3-hydroxypiperidin-1-yl)acetamide], the IC50 in assay [2] (Homo sapiens, PBMC, 48 h) amounted to 55 nM.
The same measure, in the same setting: next, `CCN(Cc1ccc(C(F)(F)F)cc1)c1ncnc(NC[C@@H]2CCN(C(C)(C)C(N)=O)C[C@H]2O)c1F` (relative stereo) [Example A7-57, rel-2-((3R,4R)-4-(((6-(ethyl(4-(trifluoromethyl)benzyl)amino)-5-fluoropyrimidin-4-yl)amino)methyl)-3-hydroxypiperidin-1-yl)-2-methylpropanamide]: 39 nM.
Consider `Cn1cc(-c2ccc(CN(c3ncnc(NC[C@]4(O)CCN(CC(N)=O)C[C@H]4O)c3F)C3CC3)c(F)c2)cn1` (single isomer, unassigned) [Example D5-05-1], for which the IC50 in assay [2] worked out at 23 nM.
The compound `NC(=O)CN1CC[C@@H](CNc2ncnc(N(Cc3ccc(C(F)(F)F)cc3)C3CC3)c2F)[C@H](O)C1` (stereo in doubt) [Example A7-01, rac-2-((3R,4R)-4-(((6-(Cyclopropyl(4-(trifluoromethyl)benzyl)amino)-5-fluoropyrimidin-4-yl)amino)methyl)-3-hydroxypiperidin-1-yl)acetamide] returned an IC50 in assay [2] (Homo sapiens, PBMC, 48 h) of 8.7 nM.
Turning to `NC(=O)CN1CCC(CNc2ncnc(N(Cc3ccc(C(F)(F)F)cc3)C3CC3)c2F)(c2ncc[nH]2)CC1` [Example A7-84, 2-(4-(((6-(Cyclopropyl(4-(trifluoromethyl)benzyl)amino)-5-fluoropyrimidin-4-yl)amino)methyl)-4-(1H-imidazol-2-yl)piperidin-1-yl)acetamide], in assay [1] (setting [3]), the EC50 is 301 nM.
Regarding `NC(=O)CN1CCC(C(CO)Nc2ncnc(N(Cc3ccc(C(F)(F)F)cc3)C3CC3)c2F)CC1` (stereo not drawn) [Example A7-87, 2-(4-(1-((6-(cyclopropyl(4-(trifluoromethyl)benzyl)amino)-5-fluoropyrimidin-4-yl)amino)-2-hydroxyethyl)piperidin-1-yl)acetamide], the EC50 in assay [1] (setting [3]) came out at 181 nM.
Same read-out and setting: next, `NC(=O)CN1CCC(N)(CNc2ncnc(N(Cc3ccc(C(F)(F)F)cc3)C3CC3)c2F)CC1` [Example E6-1, 2-(4-Amino-4-(((6-(cyclopropyl(4-(trifluoromethyl)benzyl)amino)-5-fluoropyrimidin-4-yl)amino)methyl)piperidin-1-yl)acetamide]: 150 nM.
